We go through five compounds from patent US20250361252A1 (EVER Neuro Pharma GmbH, priority 2022, published 2025).

By solubility is commonly meant how much of the substance goes into solution per volume.

The conditions of data set [1]: in vivo; cited from earlier work.
For data set [2] the following is noted: in NaCl solution; cited from earlier work.
The conditions of data set [3]: single dose; cited from earlier work.
The conditions of data set [4]: cited from earlier work.
Data set [5] has as its system human hepatocytes. In words: Metabolic stability / conversion to apomorphine on incubation with human hepatocytes.

As for `N[C@@H](Cc1ccc(O)c(O)c1)C(=O)O` [L-dopa], in data set [1], the plasma half-life was 60 to 90 min.
Consider `CN1CCc2cccc3c2[C@H]1Cc1ccc(O)c(O)c1-3` [apomorphine], for which the solubility in data set [2] was under 10000 µg/mL. The “duration of effect (mean)” value in data set [3] is 40 min. Further, the “incidence of nodule formation” value in data set [4] (subcutaneous infusion therapy, meta-analysis) is recorded as 70%. In data set [4] (subcutaneous infusion, within one year), the “patients terminating therapy because of irritations” value is given as 70%.
Consider “Apomorphine Monophosphate Calcium Salt [VIR-1-097-Ca]”, for which the “solubility in water” value is given as “Reduced solubility in water”.
Take “Apomorphine Monophosphate Potassium Salt [VIR-1-097-K]”: the “solubility in water” value was “highly soluble in water”.
Consider apomorphine monophosphate, for which the “formation of apomorphine in cell-free control group” value in data set [5] (cell-free negative control) was “no significant formation of apomorphine”. Also, in data set [5] (human hepatocytes), the “conversion of prodrug into apomorphine” value is “rapidly converted into apomorphine”, the “half-life of apomorphine monophosphate” value is 33 min and the “time of highest amount of apomorphine found” value is listed as 10 min. In addition, the “apomorphine monophosphate converted to apomorphine” value in data set [5] (human hepatocytes, within 10 min) is given as “about 30%”. Also, the apomorphine monophosphate consumed entry in data set [5] (human hepatocytes, within 60 minutes) was “about 75%”.
